Article PMC12751000, “Dual Agonist/Antagonist Modulation of α9-Containing Nicotinic Acetylcholine Receptors by 2‑Ammoniumethyl Ethers of Stilbenol and Stilbenol Analogues” (Journal of Medicinal Chemistry, 2025)
Entries after “also recorded” stand apart in the source; their conditions may differ. Read-outs that look alike come from different tables or passages of the source.

Assays:
Type in all cases: cell-based
[1] = tested on: BzATP-induced release of IL-1β from human monocytic THP-1 cells; assay: BzATP-induced IL-1β release by LPS-primed human monocytic THP-1 cells (ELISA); settings: for Effect on the inhibitory effect of ACh on BzATP-induced IL-1β release: LPS 1 μg/mL 5 h, BzATP 100 μM 40 min; for Effect on BzATP-induced IL-1β release in the absence of ACh: LPS-primed THP-1
Experimental: THP-1 cells were primed with lipopolysaccharide (LPS; 1 μg/mL, 5 h) followed by stimulation with the P2X7 receptor agonist BzATP (2′/3′-O-(4-benzoylbenzoyl)-adenosine-5′-triphosphate, tri(triethylammonium) salt) for 40 min to induce IL-1β release, which was quantified by ELISA.
Experiments on human monocytic THP-1 cells (German Collection of Microorganisms and Cell Cultures, Braunschweig, Germany, Cat# ACC16) were performed as described before. […] The supernatants were collected and stored for later IL-1β measurements using the Human IL-1β/IL-1F2 DuoSet ELISA from R&D Systems (Minneapolis MN, USA, Cat# DY201). Cell viability was assessed by measuring lactate dehydrogenase (LDH) activity in the supernatants using the CytoTox 96 Non-Radioactive Cytotoxicity Assay (Promega, Madison WI, USA; Cat# G1780). LDH activities were expressed as a percentage of total LDH activity from lysed control cells. Data on the BzATP-induced IL-1β release and LDH activity were analyzed using SPSS (Version 29.0.2.0, IBM, Armonk, NY, United States) and visualized using Inkscape version 0.48.5 r10040 (Free and Open Source Software licensed under the GPL). The data were analyzed first by the Friedman test.

hα9α10 nAChRs [2] = molecular target: T1, hα9α10 nAChRs (Homo sapiens, UniProt Q9GZZ6+Q9UGM1); assay: Two-electrode voltage clamp, compound-evoked currents (compound applied alone) at hα9α10 nAChRs in Xenopus laevis oocytes
T1 construct: host or cells: Xenopus laevis oocytes, cRNA-injected (α9:α10 cRNA ratio 1:1)
T1 sequence (Q9UGM1 26-479 limits assumed): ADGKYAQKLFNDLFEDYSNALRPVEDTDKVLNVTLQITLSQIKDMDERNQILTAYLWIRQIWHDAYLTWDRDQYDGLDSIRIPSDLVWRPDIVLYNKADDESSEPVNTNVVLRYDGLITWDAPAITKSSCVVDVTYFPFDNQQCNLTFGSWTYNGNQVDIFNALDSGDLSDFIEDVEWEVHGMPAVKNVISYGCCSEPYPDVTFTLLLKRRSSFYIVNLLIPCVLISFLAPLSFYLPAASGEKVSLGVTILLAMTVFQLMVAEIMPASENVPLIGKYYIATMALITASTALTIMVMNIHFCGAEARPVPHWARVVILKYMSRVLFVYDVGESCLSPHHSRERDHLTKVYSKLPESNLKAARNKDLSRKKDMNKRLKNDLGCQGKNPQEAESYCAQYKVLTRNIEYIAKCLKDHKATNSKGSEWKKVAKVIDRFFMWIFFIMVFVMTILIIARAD
T1 sequence (Q9GZZ6 25-450): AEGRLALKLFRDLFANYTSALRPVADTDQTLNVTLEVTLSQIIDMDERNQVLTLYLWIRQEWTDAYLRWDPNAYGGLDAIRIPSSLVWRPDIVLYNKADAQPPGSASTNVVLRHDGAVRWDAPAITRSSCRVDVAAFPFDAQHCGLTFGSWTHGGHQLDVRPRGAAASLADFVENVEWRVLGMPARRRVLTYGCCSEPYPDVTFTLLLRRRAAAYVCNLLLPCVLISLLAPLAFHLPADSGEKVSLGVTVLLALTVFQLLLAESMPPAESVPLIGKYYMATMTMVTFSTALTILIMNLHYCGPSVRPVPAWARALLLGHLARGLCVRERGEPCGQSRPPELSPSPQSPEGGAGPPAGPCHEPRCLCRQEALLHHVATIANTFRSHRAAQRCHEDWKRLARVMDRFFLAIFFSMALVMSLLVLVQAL
Source text: (§1) The protocols were approved by the Animal Ethics Committees of the Victor Chang Cardiac Research Institute, Sydney, and the University of Wollongong (project number AE 20/17). Human α9 and α10 nAChR clones were obtained from OriGene (Rockville, MD, USA) and subcloned into the pT7TS vector. The human α7 nAChR clone, in the plasmid pMXT, was kindly provided by J. Lindstrom (University of Pennsylvania, USA). Constructs of human nAChR subunits were linearized and used for in vitro cRNA transcription with the SP6/T7 mMessage mMachine transcription kit (AMBION, Forster City, CA, USA).
(§2) The cRNA concentration was verified spectrophotometrically and by gel electrophoresis.
(§3) Electrophysiological recordings were conducted 2–5 days after cRNA injection using a HiClamp automated two-electrode voltage-clamp screening system (MultiChannel Systems GmbH, Reutlingen, Germany) with a holding potential of –80 mV. To prevent the activation of endogenous Ca^2+-activated chloride channels due to the Ca^2+ permeability of α9-containing nAChRs, oocytes were preincubated with 100 μM BAPTA-AM for approximately 3 h.
Concentration–response experiments assessing compound-evoked currents were performed by initially superfusing α9-containing nAChRs oocytes with ND115 solution. Test compounds were then applied at concentrations ranging from 300 pM to 30 μM, followed by a 3 min washout period.

hα9α10 nAChRs [3] = molecular target: T1, hα9α10 nAChRs; assay: Two-electrode voltage clamp, inhibition of ACh-evoked currents at hα9α10 nAChRs expressed in Xenopus laevis oocytes; settings: for IC50 / n H (Hill coefficient of inhibition): 6 μM ACh; for IC50: 5 min preincubation with compound, holding potential −80 mV
Source text: as §1, §2, §3
For concentration–response experiments assessing modulation of ACh-evoked responses, oocytes were initially superfused with ND96 or ND115 solution, depending on the receptor subtype. […] After ACh application, a 3 min washout was performed. Oocytes were then incubated with the test compound for 5 min, followed by coapplication of the compound and ACh in a continuously flowing bath solution. All compounds were prepared in ND96 or ND115 with 0.1% bovine serum albumin (BSA).

hα9 nAChRs [4] = molecular target: T2, hα9 nAChRs (Homo sapiens, UniProt Q9UGM1); assay: Two-electrode voltage clamp, inhibition of ACh-evoked currents at hα9 nAChRs in Xenopus laevis oocytes; settings: for n H (Hill coefficient of inhibition) / IC50: 50 μM ACh; for IC50: 5 min preincubation
T2 construct: host or cells: Xenopus laevis oocytes, cRNA-injected
T2 sequence (Q9UGM1 26-479 limits assumed): as the sequence (Q9UGM1 26-479 limits assumed) above

hα7 nAChRs [5] = molecular target: T3, hα7 nAChRs (Homo sapiens, UniProt P36544); assay: Two-electrode voltage clamp, compound-evoked currents at hα7 nAChRs in Xenopus laevis oocytes; settings: compound applied alone
T3 construct: host or cells: Xenopus laevis oocytes, cRNA-injected (10 ng)
T3 sequence (P36544 23-502): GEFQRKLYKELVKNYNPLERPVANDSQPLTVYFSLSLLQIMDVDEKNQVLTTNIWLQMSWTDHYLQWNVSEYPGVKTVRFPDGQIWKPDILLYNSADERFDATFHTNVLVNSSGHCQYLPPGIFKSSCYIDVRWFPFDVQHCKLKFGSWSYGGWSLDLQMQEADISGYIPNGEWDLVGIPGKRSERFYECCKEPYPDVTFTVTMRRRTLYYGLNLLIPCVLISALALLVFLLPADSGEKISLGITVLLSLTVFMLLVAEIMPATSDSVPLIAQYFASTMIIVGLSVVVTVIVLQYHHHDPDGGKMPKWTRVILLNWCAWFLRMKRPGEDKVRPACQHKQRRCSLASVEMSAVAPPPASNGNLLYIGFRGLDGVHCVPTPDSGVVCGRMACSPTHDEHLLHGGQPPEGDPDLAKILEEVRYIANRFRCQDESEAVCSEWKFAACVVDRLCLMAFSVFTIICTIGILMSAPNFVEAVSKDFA
Experimental: Additionally, five compounds of the series were tested on the homomeric hα7 and hα9 nAChRs.
as §1, §2, §3

hα9 nAChRs [6] = molecular target: T2, hα9 nAChRs; assay: Two-electrode voltage clamp, compound-evoked currents at hα9 nAChRs in Xenopus laevis oocytes; settings: for n H (Hill coefficient of activation) / EC50: compound applied alone; for EC50: read-out: EC50
hα7 nAChRs [7] = molecular target: T3, hα7 nAChRs; assay: Two-electrode voltage clamp, inhibition of ACh-evoked currents at hα7 nAChRs in Xenopus laevis oocytes; settings: for n H (Hill coefficient of inhibition) / IC50: 100 μM ACh; for IC50: 5 min preincubation
[8] = compound applied alone (300 pM to 30 μM), normalized to response at highest concentration, read-out: EC50

Row | SMILES | EC50 (hα9α10 nAChRs [2]; [8]) [nM] | IC50 (hα9α10 nAChRs [3]) [nM] | EC50 ratio to Cpd 1 (hα9α10 nAChRs [2]) | n H (Hill coefficient of activation) (hα9α10 nAChRs [2]; compound applied alone) | IC50 ratio to Cpd 1 (hα9α10 nAChRs [3]) | n H (Hill coefficient of inhibition) (hα9α10 nAChRs [3]) | other results
1 | CC(=O)OCC[N+](C)(C)C [ACh, acetylcholine] |  |  |  |  |  |  | Effect on BzATP-induced IL-1β release ([1]; ACh 10 μM applied shortly before BzATP): significantly reduced
2 | CC[N+](CC)(CC)CCOc1ccc(CCc2ccccc2)cc1 [Compound 4] | 1140 | 189 |  |  |  |  | 
3 | C[N+](C)(CCOc1ccc(/C=C/c2ccccc2)cc1)C1CCOCC1.[I-] [Compound 6, (E)-N,N-Dimethyl-N-(2-(4-styrylphenoxy)ethyl)tetrahydro-2H-pyran-4-aminium Iodide] | 185 | 55 | 0.5 | 2.4 | 0.9 | 2.1 | 
4 | C[N+](C)(CCOc1ccc(/C=C/c2ccccc2)cc1)C1CCCC1.[I-] [Compound 7, (E)-N,N-Dimethyl-N-(2-(4-styrylphenoxy)ethyl)cyclopentanaminium Iodide] | 175 | 22.1 | 0.5 | 1.6 | 0.4 | 1.7 | 
5 | C[N+](C)(CCOc1ccc(/C=C/c2ccccc2)cc1)C1CCCCCC1.[I-] [Compound 8, (E)-N,N-Dimethyl-N-(2-(4-styrylphenoxy)ethyl)cycloheptanaminium Iodide] | 300 | 124 | 0.8 | 1.6 | 2.1 | 2.6 | 
6 | C[N+](C)(CCOc1ccc(/C=C/c2ccccc2)cc1)c1ccccc1.[I-] [Compound 9, (E)-N,N-Dimethyl-N-(2-(4-styrylphenoxy)ethyl)benzenaminium Iodide] | 474 | 95.1 | 1.2 | 3.3 | 1.6 | 2.1 | 
7 | C[N+](C)(CCOc1ccc(/C=C/c2ccccc2)cc1)Cc1ccccc1.[Br-] [Compound 10, (E)-N-Benzyl-N,N-dimethyl-2-(4-styrylphenoxy)ethanaminium Bromide] | 448 | 124 | 1.2 | 2.4 | 2.1 | 2.1 | 
8 | C[N+](CCOc1ccc(/C=C/c2ccccc2)cc1)(C1CCCC1)C1CCCC1.[I-] [Compound 12, (E)-N-Cyclopentyl-N-methyl-N-(2-(4-styrylphenoxy)ethyl)cyclopentanaminium Iodide] | 1710 | 378 | 4.4 | 1.2 | 6.3 | 3.0 | 
9 | C[N+](CCOc1ccc(/C=C/c2ccccc2)cc1)(Cc1ccccc1)Cc1ccccc1 [Compound 13] | 7040 | 1110 |  |  |  |  | EC50 (hα9α10 nAChRs [2]; compound applied alone, read-out: EC50): > 5000 nM
10 | C[N+](C)(CCCOc1ccc(/C=C/c2ccccc2)cc1)C1CCCCC1.[I-] [Compound 14, (E)-N,N-Dimethyl-N-(3-(4-styrylphenoxy)propyl)cyclohexanaminium Iodide] | 511 | 98.9 | 1.3 | 3.0 | 1.6 | 2.1 | 
11 | C[N+](C)(CCCCOc1ccc(/C=C/c2ccccc2)cc1)C1CCCCC1.[I-] [Compound 15, (E)-N,N-Dimethyl-N-(4-(4-styrylphenoxy)butyl)cyclohexanaminium Iodide] | 1470 | 124 | 3.8 | 1.4 | 2.1 | 2.0 | 
12 | C[N+](C)(CCOc1ccc(CCc2ccccc2)cc1)C1CCCCC1.[I-] [Compound 16, N,N-Dimethyl-N-(2-(4-phenethylphenoxy)ethyl)cyclohexanaminium Iodide] | 482 | 168 | 1.3 | 3.2 | 2.8 | 3.8 | IC50 ratio to Cpd 1 (hα9 nAChRs [4]): 0.7; n H (Hill coefficient of inhibition) (hα9 nAChRs [4]): 1.5; IC50 (hα9 nAChRs [4]): 133 nM; Effect on the inhibitory effect of ACh on BzATP-induced IL-1β release ([1]; compound 100 pM + ACh 10 μM): efficiently antagonized the inhibitory effect of ACh; Effect on BzATP-induced IL-1β release in the absence of ACh ([1]; compound 100 pM): minor reduction; Effect on BzATP-induced IL-1β release in the absence of ACh ([1]; compound 100 nM): effectively and significantly inhibited; EC50 (hα7 nAChRs [5]): no agonist activity; EC50 ratio to Cpd 1 (hα9 nAChRs [6]): 1.1; n H (Hill coefficient of activation) (hα9 nAChRs [6]): 2.4; EC50 (hα9 nAChRs [6]): 983 nM; IC50 ratio to Cpd 1 (hα7 nAChRs [7]): 1.0; n H (Hill coefficient of inhibition) (hα7 nAChRs [7]): 1.8; IC50 (hα7 nAChRs [7]): 434 nM
13 | CC[N+](CC)(CC)CCOc1ccc(-c2ccccc2)cc1 [Compound 17] | 479 | 117 | 1.2 | 3.3 | 1.9 | 1.4 | 
14 | CC[N+](CC)(CC)CCOc1ccc(C#Cc2ccccc2)cc1 [Compound 18] | 550 | 89 | 1.4 | 2.2 | 1.5 | 1.8 | 
15 | CC[N+](CC)(CC)CCOc1ccc(OCc2ccccc2)cc1 [Compound 19] | 1020 | 207 | 2.6 | 1.9 | 3.4 | 1.6 | 
16 | CC[N+](CC)(CC)CCOc1ccc(COc2ccccc2)cc1 [Compound 20] |  | 139 |  |  | 2.3 | 1.7 (1.6–1.8) [8] | EC50 (hα9α10 nAChRs [2]; compound applied alone (300 pM to 30 μM), normalized to response at highest concentration): failed to activate; also recorded: failed to evoke currents; also recorded: No activity
17 | C[N+](C)(CCOc1ccc(OCc2ccccc2)cc1)C1CCCCC1.[I-] [Compound 21, N-(2-(4-(Benzyloxy)phenoxy)ethyl)-N,N-dimethylcyclohexanaminium Iodide] | 338 | 39.1 | 0.9 | 3.7 | 0.6 | 1.7 | IC50 ratio to Cpd 1 (hα9 nAChRs [4]): 0.9; n H (Hill coefficient of inhibition) (hα9 nAChRs [4]): 1.6; IC50 (hα9 nAChRs [4]): 171 nM; Effect on the inhibitory effect of ACh on BzATP-induced IL-1β release ([1]; compound 100 pM + ACh 10 μM): efficiently antagonized the inhibitory effect of ACh; Effect on BzATP-induced IL-1β release in the absence of ACh ([1]; compound 100 pM): minor reduction; Effect on the inhibitory effect of ACh on BzATP-induced IL-1β release ([1]; compound 100 nM + ACh 10 μM): mild antagonistic effects; Effect on BzATP-induced IL-1β release in the absence of ACh ([1]; compound 100 nM): effectively and significantly inhibited; EC50 (hα7 nAChRs [5]): No activity; EC50 ratio to Cpd 1 (hα9 nAChRs [6]): 1.0; n H (Hill coefficient of activation) (hα9 nAChRs [6]): 2.2; EC50 (hα9 nAChRs [6]): 905 nM; IC50 ratio to Cpd 1 (hα7 nAChRs [7]): 1.0; n H (Hill coefficient of inhibition) (hα7 nAChRs [7]): 1.5; IC50 (hα7 nAChRs [7]): 419 nM
